Source: paper PMC9315260, “Diarylamine-Guided Carboxamide Derivatives: Synthesis, Biological Evaluation, and Potential Mechanism of Action” (Frontiers in Chemistry, 2022)
“Also recorded” adds a separate entry of the source.

What was measured:
[1] = system: SGC-7901 (human gastric cancer cell line); test: MTT in vitro cytotoxicity assay, SGC-7901; assay type: cell-based; conditions: for IC50: mean ± S.D.; for inhibition at 100 µM: SGC-7901, at 100 µM, read-out: Cell growth inhibition (%) SGC-7901
Experimental: (§1) The lead molecules A2 and all newly prepared diarylamine derivatives B1-13 and C1-11 were evaluated for their in vitro cytotoxic effects against SGC-7901, A875, HepG2 and MARC145 cell lines by the classical MTT [3-(4,5-dimethylthiazol-2-yl)-2,5-diphenyl tetrazolium bromide] assay ([Alley et al., 1988]; [Ke et al., 2012]; [Shi et al., 2012]; [Yu et al., 2015]; [Ke et al., 2019]; [Xu et al., 2019]; [Huang et al., 2021]) using 5-FU (5-Fluorouracil) as a control.
(§2) The cytotoxicity of target compounds was determined with MTT assay ([Alley et al., 1988]; [Ke et al., 2012]; [Shi et al., 2012]; [Yu et al., 2015]; [Ke et al., 2019]; [Xu et al., 2019]; [Huang et al., 2021]). SGC-7901, A875, HepG2 and MARC145 cell lines were obtained from Hubei Biopesticide Engineering Research Centre. All data of the experiment were analyzed with SPSS software, and all assay were performed in triplicate on three independent experiments, and measurement data were expressed as the mean ± S.D.
(§3) The in vitro cytotoxicity of the synthesized compounds against different cell lines (SGC-7901, A875, HepG2 and MARC145) was measured with MTT assay. All the data of the experiment were analyzed with SPSS software, and the 50% inhibitory concentrations (IC50) of each compound for the different cell lines were determined. A control was run for each test, and all assays were performed in triplicate on three independent experiments, and measurement data were expressed as the mean ± S.D.

[2] = system: A875 (human melanoma cell line); test: MTT in vitro cytotoxicity assay, A875; assay type: cell-based; conditions: for IC50: mean ± S.D.; for inhibition at 100 µM: A875, at 100 µM, read-out: Cell growth inhibition (%) A875
Experimental: as §1, §2, §3

[3] = system: HepG2 (human hepatocellular liver carcinoma cell line); test: MTT in vitro cytotoxicity assay, HepG2; assay type: cell-based; conditions: for IC50: mean ± S.D.; for inhibition at 100 µM: HepG2, at 100 µM, read-out: Cell growth inhibition (%) HepG2
Experimental: as §1, §2, §3

[4] = MTT in vitro cytotoxicity assay, MARC145; assay type: cell-based, African green monkey; conditions: African green monkey, MARC145 cells (kidney cell line, subclone of MA-104), MTT, mean ± S.D.
Experimental: as §1, §2, §3

[5] = system: MARC145 (subclone of African green monkey kidney cell line MA-104); test: MTT in vitro cytotoxicity assay, MARC145; assay type: cell-based; conditions: Chlorocebus sabaeus, MARC145; at 100 µM; read-out: Cell growth inhibition (%) MARC145
Experimental: as §1, §2, §3

[6] = system: SGC-7901, A875, HepG2 and MARC145 cell lines; test: MTT in vitro cytotoxicity assay, statements over the whole cell panel; assay type: cell-based
Experimental: as §1, §2, §3

| SMILES | melting point | IC50 ([1]; SGC-7901, Table 1, MTT) | IC50 ([2]; A875, Table 1, MTT) | IC50 ([3]; HepG2, Table 1, MTT) | IC50 ([4]; Table 1) | IC50 ([1]; SGC-7901, Table 3, MTT) | inhibition at 100 µM [1] | IC50 ([2]; A875, Table 3, MTT) | inhibition at 100 µM [2] | IC50 ([3]; HepG2, Table 3, MTT) | inhibition at 100 µM [3] | IC50 ([4]; Table 3) | inhibition at 100 µM [5] | cytotoxic effect / inhibition activity in words ([6]; IC50-based judgement, compared with 5-FU) | dose-response analysis of cell growth inhibition, in words ([6]; SGC-7901, A875, HepG2, MARC145) | inhibition activity in preliminary screening, in words ([6]; at 100 µM, inhibition rate higher than control 5-FU) |
| --- | --- | --- | --- | --- | --- | --- | --- | --- | --- | --- | --- | --- | --- | --- | --- | --- |
| NC(=O)c1c(Cl)cccc1NC(=O)c1ccccc1Nc1cccc(C(F)(F)F)c1 [B11, N-(2-Carbamoyl-3-chlorophenyl)-2-((3-(trifluoromethyl)phenyl)amino)benzamide] | 194 to 195 °C | > 92 µM | > 92 µM | > 92 µM | > 92 µM | – | – | – | – | – | – | – | – | – | – | – |
| CNC(=O)c1c(Cl)cccc1NC(=O)c1ccccc1Nc1cccc(C(F)(F)F)c1 [B12, 2-Chloro-N-methyl-6-(2-((3-(trifluoromethyl)phenyl)amino)benzamido)benzamide] | 178 to 179 °C | > 89 µM | > 89 µM | > 89 µM | > 89 µM | – | – | – | – | – | – | – | – | – | – | – |
| CNC(=O)c1cc(Cl)cc(Cl)c1NC(=O)c1ccccc1Nc1cccc(C(F)(F)F)c1 [B13, 3,5-Dichloro-N-methyl-2-(2-((3-(trifluoromethyl)phenyl)amino)benzamido)benzamide] | 180 to 181 °C | > 83 µM | > 83 µM | > 83 µM | > 83 µM | – | – | – | – | – | – | – | – | – | – | – |
| O=C(Nc1ccc(C(F)(F)F)cc1)c1cccnc1Nc1cccc(C(F)(F)F)c1 [C8, N-(4-(Trifluoromethyl)phenyl)-2-((3-(trifluoromethyl)phenyl)amino)nicotinamide] | – | – | – | – | – | > 94 µM | 51.2 ± 3.5% | 55.6 ± 6.73 µM | 56.5 ± 3.1% | > 94 µM | 42.4 ± 2.6% | 57.7 ± 8.87 µM | 65.8 ± 2.6% | – | – | – |

Continued, in another order:

| melting point | SMILES | IC50 ([1]; SGC-7901, Table 1, MTT) | IC50 ([2]; A875, Table 1, MTT) | IC50 ([3]; HepG2, Table 1, MTT) | IC50 ([4]; Table 1) | IC50 ([1]; SGC-7901, Table 3, MTT) | inhibition at 100 µM [1] | IC50 ([2]; A875, Table 3, MTT) | inhibition at 100 µM [2] | IC50 ([3]; HepG2, Table 3, MTT) | inhibition at 100 µM [3] | IC50 ([4]; Table 3) | inhibition at 100 µM [5] | cytotoxic effect / inhibition activity in words ([6]; IC50-based judgement, compared with 5-FU) | dose-response analysis of cell growth inhibition, in words ([6]; SGC-7901, A875, HepG2, MARC145) | inhibition activity in preliminary screening, in words ([6]; at 100 µM, inhibition rate higher than control 5-FU) |
| --- | --- | --- | --- | --- | --- | --- | --- | --- | --- | --- | --- | --- | --- | --- | --- | --- |
| 74 to 75 °C | CC(C)c1ccc(NC(=O)c2ccccc2Nc2cccc(C(F)(F)F)c2)cc1 [C1, N-(4-Isopropylphenyl)-2-((3-(trifluoromethyl)phenyl)amino)benzamide] | – | – | – | – | 47 ± 9.74 µM | 72.3 ± 3.1% | > 100 µM | 43.1 ± 2% | > 100 µM | 42.7 ± 3.1% | > 100 µM | 7.5 ± 2.3% | – | – | – |
| 161 to 162 °C | CC(C)c1ccc(NC(=O)c2cccnc2Nc2cccc(C(F)(F)F)c2)cc1 [C2, N-(4-Isopropylphenyl)-2-((3-(trifluoromethyl)phenyl)amino)nicotinamide] | – | – | – | – | > 100 µM | 26.9 ± 1.8% | > 100 µM | 42 ± 2.5% | > 100 µM | 13.1 ± 2.3% | > 100 µM | 15.8 ± 1.9% | – | – | – |
| 82 to 83 °C | O=C(Nc1ccccc1C(F)(F)F)c1ccccc1Nc1cccc(C(F)(F)F)c1 [C3, N-(2-(Trifluoromethyl)phenyl)-2-((3-(trifluoromethyl)phenyl)amino)benzamide] | – | – | – | – | 29.7 ± 4.03 µM | 78.6 ± 2.9% | > 94 µM | 56.4 ± 2.5% | 24.2 ± 3.21 µM | 88.5 ± 3.2% | > 94 µM | 23.5 ± 2.1% | – | – | – |
| 139 to 140 °C | O=C(Nc1ccccc1C(F)(F)F)c1cccnc1Nc1cccc(C(F)(F)F)c1 [C4, N-(2-(Trifluoromethyl)phenyl)-2-((3-(trifluoromethyl)phenyl)amino)nicotinamide] | – | – | – | – | > 94 µM | 4.5 ± 0.4% | > 94 µM | 5.2 ± 1.5% | > 94 µM | 3.1 ± 1.2% | > 94 µM | 0% | – | – | – |
| 75 to 76 °C | O=C(Nc1cccc(C(F)(F)F)c1)c1ccccc1Nc1cccc(C(F)(F)F)c1 [C5, N-(3-(Trifluoromethyl)phenyl)-2-((3-(trifluoromethyl)phenyl)amino)benzamide] | – | – | – | – | 6.39 ± 1.53 µM | 89.6 ± 5.4% | 8.54 ± 2.17 µM | 93.7 ± 3.2% | 10.1 ± 0.8 µM | 88.9 ± 1.9% | 9.57 ± 2.15 µM | 92.3 ± 4.1% | good cytotoxic effect; also recorded: higher inhibition activities compared to the control 5-FU | significant concentration dependence | good inhibition activity |
| 65 to 66 °C | O=C(Nc1ccccn1)c1ccccc1Nc1cccc(C(F)(F)F)c1 [C9, N-(Pyridin-2-yl)-2-((3-(trifluoromethyl)phenyl)amino)benzamide] | – | – | – | – | 42 ± 7.95 µM | 80.5 ± 2.5% | > 112 µM | 30.3 ± 4.1% | 64.2 ± 3.89 µM | 75 ± 2.7% | 64.7 ± 3.02 µM | 56.5 ± 3.3% | – | – | – |
